Numbers after ± are expanded uncertainties.
Test: xn = mol fraction of the nth substance listed
Conditions: 100 kPa, Liquid; for speed of sound: Frequency=3 MHz, Sing-around technique in a fixed-path interferometer; for mass density: Vibrating tube method

CCCCOCC(C)O (stereo not given) [1-butoxy-2-propanol] + CCC(C)O
Conditions | mass density, 293.15 K [kg/m3] | mass density, 298.15 K [kg/m3] | mass density, 303.15 K [kg/m3] | mass density, 308.15 K [kg/m3] | mass density, 313.15 K [kg/m3] | speed of sound, 293.15 K [m/s] | speed of sound, 298.15 K [m/s] | speed of sound, 303.15 K [m/s] | speed of sound, 308.15 K [m/s] | speed of sound, 313.15 K [m/s]
x1 = 0.0517 | 812.712 ± 0.16 | 808.614 ± 0.16 | 804.434 ± 0.16 | 800.162 ± 0.17 | 795.809 ± 0.17 | 1234.4 ± 1.3 | 1217.3 ± 1.3 | 1201.4 ± 1.3 | 1181.6 ± 1.2 | 1163.6 ± 1.2
x1 = 0.1014 | 818.284 ± 0.16 | 814.152 ± 0.16 | 809.949 ± 0.16 | 805.653 ± 0.16 | 801.286 ± 0.17 | 1238.8 ± 1.3 | 1221.5 ± 1.3 | 1205.7 ± 1.3 | 1186 ± 1.2 | 1168 ± 1.2
x1 = 0.1527 | 823.685 ± 0.16 | 819.533 ± 0.16 | 815.316 ± 0.16 | 811.017 ± 0.16 | 806.644 ± 0.16 | 1243 ± 1.3 | 1225.9 ± 1.3 | 1209.6 ± 1.3 | 1190 ± 1.2 | 1172 ± 1.2
x1 = 0.2041 | 828.704 ± 0.16 | 824.532 ± 0.16 | 820.316 ± 0.16 | 816 ± 0.16 | 811.61 ± 0.16 | 1246.9 ± 1.3 | 1229.4 ± 1.3 | 1213.3 ± 1.3 | 1194 ± 1.2 | 1176 ± 1.2
x1 = 0.2815 | 835.699 ± 0.16 | 831.499 ± 0.16 | 827.23 ± 0.16 | 822.897 ± 0.16 | 818.493 ± 0.16 | 1252.2 ± 1.3 | 1234 ± 1.3 | 1218.3 ± 1.3 | 1199.1 ± 1.3 | 1181.2 ± 1.2
x1 = 0.3581 | 841.995 ± 0.15 | 837.767 ± 0.16 | 833.49 ± 0.16 | 829.144 ± 0.16 | 824.735 ± 0.16 | 1256.8 ± 1.3 | 1238.2 ± 1.3 | 1222.6 ± 1.3 | 1203.6 ± 1.3 | 1185.7 ± 1.2
x1 = 0.4421 | 848.377 ± 0.15 | 844.12 ± 0.15 | 839.804 ± 0.16 | 835.438 ± 0.16 | 831.018 ± 0.16 | 1261.1 ± 1.3 | 1242.5 ± 1.3 | 1226.7 ± 1.3 | 1207.9 ± 1.3 | 1190 ± 1.2
x1 = 0.5348 | 854.7 ± 0.15 | 850.417 ± 0.15 | 846.095 ± 0.15 | 841.719 ± 0.15 | 837.299 ± 0.16 | 1265.3 ± 1.3 | 1246.8 ± 1.3 | 1230.6 ± 1.3 | 1212 ± 1.3 | 1194.1 ± 1.2
x1 = 0.627 | 860.446 ± 0.15 | 856.141 ± 0.15 | 851.795 ± 0.15 | 847.417 ± 0.15 | 842.98 ± 0.15 | 1268.8 ± 1.3 | 1250.7 ± 1.3 | 1233.8 ± 1.3 | 1215.3 ± 1.3 | 1197.5 ± 1.2
x1 = 0.7213 | 865.799 ± 0.15 | 861.469 ± 0.15 | 857.116 ± 0.15 | 852.712 ± 0.15 | 848.267 ± 0.15 | 1271.6 ± 1.3 | 1254 ± 1.3 | 1236.5 ± 1.3 | 1218.2 ± 1.3 | 1200.3 ± 1.3
x1 = 0.8116 | 870.476 ± 0.15 | 866.131 ± 0.15 | 861.747 ± 0.15 | 857.328 ± 0.15 | 852.892 ± 0.15 | 1274 ± 1.3 | 1256.4 ± 1.3 | 1238.8 ± 1.3 | 1220.6 ± 1.3 | 1202.8 ± 1.3
x1 = 0.8581 | 872.724 ± 0.15 | 868.372 ± 0.15 | 863.985 ± 0.15 | 859.577 ± 0.15 | 855.127 ± 0.15 | 1275.3 ± 1.3 | 1257.5 ± 1.3 | 1239.8 ± 1.3 | 1221.9 ± 1.3 | 1204.1 ± 1.3
x1 = 0.9062 | 874.964 ± 0.15 | 870.61 ± 0.15 | 866.21 ± 0.15 | 861.774 ± 0.15 | 857.32 ± 0.15 | 1276.4 ± 1.3 | 1258.6 ± 1.3 | 1240.8 ± 1.3 | 1222.8 ± 1.3 | 1205 ± 1.3
x1 = 0.9536 | 877.051 ± 0.15 | 872.689 ± 0.15 | 868.316 ± 0.15 | 863.853 ± 0.15 | 859.383 ± 0.15 | 1277.7 ± 1.3 | 1259.7 ± 1.3 | 1242 ± 1.3 | 1223.9 ± 1.3 | 1206.1 ± 1.3
x1 = 1 | 879.031 ± 0.15 | 874.632 ± 0.15 | 870.204 ± 0.15 | 865.737 ± 0.15 | 861.241 ± 0.15 | 1279 ± 1.3 | 1260.9 ± 1.3 | 1242.9 ± 1.3 | 1224.9 ± 1.3 | 1207 ± 1.3

CCCCOCC(C)O (stereo not given) [1-butoxy-2-propanol] + CCCCO
Conditions | mass density, 293.15 K [kg/m3] | mass density, 298.15 K [kg/m3] | mass density, 303.15 K [kg/m3] | mass density, 308.15 K [kg/m3] | mass density, 313.15 K [kg/m3] | speed of sound, 293.15 K [m/s] | speed of sound, 298.15 K [m/s] | speed of sound, 303.15 K [m/s] | speed of sound, 308.15 K [m/s] | speed of sound, 313.15 K [m/s]
x1 = 0.0519 | 815.814 ± 0.15 | 811.979 ± 0.15 | 808.09 ± 0.15 | 804.168 ± 0.15 | 800.279 ± 0.15 | 1259.9 ± 1.2 | 1243.7 ± 1.2 | 1227.1 ± 1.2 | 1210.6 ± 1.2 | 1193 ± 1.2
x1 = 0.0992 | 821.015 ± 0.15 | 817.166 ± 0.15 | 813.235 ± 0.15 | 809.277 ± 0.15 | 805.328 ± 0.15 | 1262.1 ± 1.2 | 1246.1 ± 1.2 | 1229.4 ± 1.2 | 1212.9 ± 1.2 | 1194.8 ± 1.2
x1 = 0.1522 | 826.515 ± 0.15 | 822.607 ± 0.15 | 818.628 ± 0.15 | 814.607 ± 0.15 | 810.63 ± 0.15 | 1264.4 ± 1.2 | 1248.7 ± 1.2 | 1232 ± 1.2 | 1215.4 ± 1.2 | 1196.7 ± 1.2
x1 = 0.2025 | 831.372 ± 0.14 | 827.404 ± 0.15 | 823.395 ± 0.15 | 819.351 ± 0.15 | 815.31 ± 0.15 | 1266.4 ± 1.2 | 1250.8 ± 1.2 | 1234.1 ± 1.2 | 1217.4 ± 1.2 | 1198.4 ± 1.2
x1 = 0.2533 | 835.963 ± 0.14 | 831.953 ± 0.15 | 827.91 ± 0.15 | 823.833 ± 0.15 | 819.767 ± 0.15 | 1268.2 ± 1.2 | 1252.7 ± 1.2 | 1235.8 ± 1.2 | 1219 ± 1.2 | 1199.9 ± 1.2
x1 = 0.3031 | 840.187 ± 0.14 | 836.14 ± 0.14 | 832.063 ± 0.15 | 827.949 ± 0.15 | 823.842 ± 0.15 | 1269.8 ± 1.2 | 1254.1 ± 1.2 | 1237.2 ± 1.2 | 1220.3 ± 1.2 | 1201.2 ± 1.2
x1 = 0.4039 | 847.844 ± 0.14 | 843.734 ± 0.14 | 839.592 ± 0.15 | 835.411 ± 0.15 | 831.226 ± 0.15 | 1272.5 ± 1.2 | 1256.4 ± 1.2 | 1239.4 ± 1.2 | 1222.4 ± 1.2 | 1203.2 ± 1.2
x1 = 0.4992 | 854.333 ± 0.14 | 850.165 ± 0.14 | 845.969 ± 0.15 | 841.732 ± 0.15 | 837.498 ± 0.15 | 1274.5 ± 1.2 | 1258.4 ± 1.2 | 1241.2 ± 1.2 | 1224 ± 1.2 | 1204.8 ± 1.2
x1 = 0.6055 | 860.746 ± 0.14 | 856.533 ± 0.14 | 852.278 ± 0.15 | 847.986 ± 0.15 | 843.678 ± 0.15 | 1276.3 ± 1.2 | 1260.1 ± 1.2 | 1242.8 ± 1.2 | 1225.4 ± 1.2 | 1206.2 ± 1.2
x1 = 0.7017 | 865.941 ± 0.14 | 861.685 ± 0.14 | 857.378 ± 0.15 | 853.038 ± 0.15 | 848.688 ± 0.15 | 1277.4 ± 1.2 | 1260.8 ± 1.2 | 1243.5 ± 1.2 | 1226.1 ± 1.2 | 1207 ± 1.2
x1 = 0.8058 | 871.007 ± 0.14 | 866.701 ± 0.15 | 862.345 ± 0.15 | 857.961 ± 0.15 | 853.562 ± 0.15 | 1278.3 ± 1.2 | 1261.3 ± 1.2 | 1243.9 ± 1.2 | 1226.4 ± 1.2 | 1207.5 ± 1.2
x1 = 0.852 | 873.053 ± 0.14 | 868.741 ± 0.15 | 864.367 ± 0.15 | 859.962 ± 0.15 | 855.538 ± 0.15 | 1278.6 ± 1.3 | 1261.3 ± 1.2 | 1243.9 ± 1.2 | 1226.3 ± 1.2 | 1207.5 ± 1.2
x1 = 0.8982 | 875.005 ± 0.15 | 870.664 ± 0.15 | 866.282 ± 0.15 | 861.844 ± 0.15 | 857.451 ± 0.15 | 1278.8 ± 1.3 | 1261.3 ± 1.3 | 1243.9 ± 1.2 | 1226.3 ± 1.2 | 1207.5 ± 1.2
x1 = 0.9565 | 877.407 ± 0.15 | 873.039 ± 0.15 | 868.667 ± 0.15 | 864.216 ± 0.15 | 859.743 ± 0.15 | 1279 ± 1.3 | 1261.5 ± 1.3 | 1243.9 ± 1.3 | 1226.3 ± 1.3 | 1207.5 ± 1.2
x1 = 1 | 879.031 ± 0.15 | 874.632 ± 0.15 | 870.204 ± 0.15 | 865.737 ± 0.15 | 861.241 ± 0.15 | 1279 ± 1.3 | 1260.9 ± 1.3 | 1242.9 ± 1.3 | 1224.9 ± 1.3 | 1207 ± 1.3

Reference: the NIST ThermoML archive (doi:10.1016/j.jct.2014.07.019)
